Where a SMILES comes first, the peptide text is derived from it. The star is where a group is joined. Succinyl(4-O-cholesteryl) = CC(C)CCC[C@@H](C)[C@H]1CC[C@H]2[C@@H]3CC=C4C[C@@H](OC(=O)CCC(=O)*)CC[C@]4(C)[C@H]3CC[C@]12C

One data set concerns NY-ESO-1+B16 tumor cells. As to the kind of experiment: NY-ESO-1 vaccine, preventive and therapeutic NY-ESO-1+ B16 tumor models. In kind it is in vivo, mouse. Conditions: both preventive and therapeutic model; NY-ESO-1 protein antigen. As to the method:
The specific steps are as follows: • (1) Vaccine preparation
Incubate 20 μg of CpG and 40 μg of DP7-C at 37° C. for 15 min, add 5 μg of NY-ESO-1 protein, and replenish to a volume of 100 μl with sterile PBS. • (2) Grouping and dosage regimen
In this study, animal experiments are divided into […]: NS, CpG, DP7-C and CpG/DP7-C, 10 mice for each group, and the dosage of each mouse is as follows: • (1) NS group: 100 μl of PBS; • (2) CpG group: 5 μg of NY-ESO-1 protein+20 μg of CpG; • (3) DP7-C group: 5 μg of NY-ESO-1 protein+40 μg of DP7-C; • (4) CpG/DP7-C group: 5 μg of NY-ESO-1 protein+20 μg of CpG+40 μg DP7-C;
The total dosage of each mouse is 100 μl; if the dosage is less than 100 μl, sterile PBS may be added to reach 100 μl. • (3) Preventive immunity tumor model: perform subcutaneous immunotherapy at multiple sites on weeks 0, 2 and 4, and detect total antibody titers before inoculate tumor on week 5. Subcutaneously inoculate the tumor cells NY-ESO-1+B16: […] at the back of each mouse. After the tumor grows out, measure it at intervals of 3 days. Calculation formula of tumor volume: 0.52×length×width^2. Therapeutic immune tumor model: subcutaneously inoculate 2×10^5 of NY-ESO-1^+B16 tumor cells at the back of each mouse on day 0, and immunize on day 5 (once a week, for 3 consecutive times). Measure at intervals of 3 days and observe the survival time after the tumor grows out.

Data set [1] can be described thus: Physical characteristics of DP7-C micelles (Malvin particle size meter, appearance). The class given is physicochemical. An excerpt: We detected some physical characteristics such as particle size and Zeta potential of DP7-C micelles by the atomic force microscope and Malvin particle size meter. • 1 Atomic force microscope photography: prepare different concentrations of DP7-C solution, add to the mica sheets dropwise and dry naturally. Put the mica sheets coated with DP7-C on the atomic force microscope for photography. • 2 Detection of particle size and Zeta potential: dissolve DP7-C in Milliq water, determine particle size and Zeta potential by Malvin particle size meter, and detect each sample for four times to obtain their average value. • 3 Appearance and solution state of DP7-C: observe the appearance of MilliQ water, DP7-C water solution and lyophilized powder, and take photos with a camera; wherein, a is MilliQ water, b is DP7-C dissolved in aqueous solution, C is the state of DP7-C lyophilized powder after redissolving, and d is the shape and color of DP7-C lyophilized powder.

The subject of a further data set is red blood cells. As to the kind of experiment: Hemolysis test in vitro. In kind it is cell-based, human (healthy volunteers). Here is the method:
In the hemolysis test, DP7 and DP7-C at the same concentration were detected for the hemolysis of red blood cells. • 1. Take the blood of healthy volunteers and put into an anticoagulant tube and gently mix. • 2. Take out the anticoagulant, add isometric physiological saline, mix slowly and evenly, centrifuge at 400×g for 10 min, and discard the supernatant. • 3. Slowly mix the red blood cells and wash with PBS, centrifuge at 400×g for 10 min, discard the supernatant, and wash the cell precipitate with PBS for three times. • 4. Dilute with PBS to obtain 20% (v/v) red blood cell solution, which can be used immediately or stored at 4° C. for about 2 weeks (without hemolysis). • 5. Dilute the drug into a series of concentration gradients with PBS, add 100 μL of drug into a 96-well plate, take 100 μL of 2% Twain 20 as the positive control, add 100 μL of PBS to the negative control. Repeat the process 3 times for each concentration of drug. • 6. Dilute 20% (v/v) of red blood cell solution with PBS according to the volume ratio of 1:20, mix evenly and add to a 96-well plate, with the drug concentration of 100, 200, 400, 600, 800, 1000, 1200, 1600 μg/mL respectively, and incubate at 37° C. for 1 h. • 7. Incubate the mixture of drugs and red blood cells, centrifuge at 900×g for 10 min, add 160 μL of the supernatant to a new 96-well plate, and read the absorbance value at OD 450 nm. • 8. According to the absorbance value of A450, calculate the percentage of hemolysis corresponding to each concentration of drugs.
The calculation formula of the percentage of hemolysis is: […]

The next data set has as its system YAC-1 cells. As to the kind of experiment: NK cell killing activity after immunization (LDH release). In kind it is cell-based, mouse. Particulars: splenic lymphocytes 48 h after primary immunization. As to the method: Innate immunity plays an important role in anti-tumor immunity. We detected the killing activity of mouse NK cells after immunization with DP7-C adjuvant.
After 48 h of primary immunization, kill the mice by the cervical dislocation, and isolate splenic lymphocyte from the lymphocyte separation medium as effector cells.
Resuscitate and incubate YAC-1 cells, transfer one day before the experiment, and keep 2×10^6/20 ml. Stain with trypan blue. Available when activity is more than 95%.
• (1) Add target cells and effector cells into a 96-well plate (ratio of target cells to effector cells: 1:25, 1:50, 1:100, 1:200 as per 10,000 target cells per well) and incubate at 37° C. for 4 h. • (2) Centrifuge at 250 g, and take supernatant for LDH releasing test.
(In general: LDH in the medium is a marker of cell lysis.)

Setting [2] is: Milliq water, Malvin particle size meter.

As to `CC[C@H](C)[C@H](NC(=O)[C@H](CCCNC(=N)N)NC(=O)[C@H](Cc1c[nH]c2ccccc12)NC(=O)[C@H](CCC(N)=O)NC(=O)[C@@H](NC(=O)CCC(=O)O[C@H]1CC[C@@]2(C)C(=CC[C@H]3[C@@H]4CC[C@H]([C@H](C)CCCC(C)C)[C@@]4(C)CC[C@@H]32)C1)C(C)C)C(=O)N[C@@H](CCCNC(=N)N)C(=O)N[C@H](C(=O)N[C@@H](C)C(=O)N[C@H](C(=O)N[C@H](C(=O)N[C@@H](CCCNC(=N)N)C(=O)N[C@@H](CCCCN)C(N)=O)[C@@H](C)CC)C(C)C)C(C)C` [DP7-C, Chol-suc-VQWRIRVAVIRK-NH2] ({Succinyl(4-O-cholesteryl)}-VQWRIRVAVIRK-NH2), the tumor growth entry in the data set with NY-ESO-1+B16 tumor cells is listed as “inhibit tumor growth to some extent”. Moreover, in data set [1] (setting [2]), the Zeta potential entry was “about 28.8±0.27 mV” and the particle size result is reported as “about 24.3±1.5 nm”. In addition, the solubility in water result in data set [1] (lyophilized powder) is recorded as “soluble in water”. In the data set with red blood cells (FIG. 5B), the “appearance of hemolysis test” value is “red blood cells are not lysed”. The “degree of lysis to red blood cells” value in the data set on red blood cells (drug concentration more than 0.8 mg/mL, 37° C. 1 h) is “much less than DP7”. Besides, in the data set on YAC-1 cells, the “NK cell killing activity” value was “slightly strong NK cell killing activity”.

The record behind these values is patent publication US20250249110A1, “ANTIMICROBIAL PEPTIDE DERIVATIVE AND USE THEREOF” (SICHUAN UNIVERSITY, priority 2016, published 2025).
